Patent US10800816B2 (Baxalta GmbH, priority 2012, dated 2020)
Where a SMILES comes first, the peptide text is derived from it. Bridges are numbered along the chain shown (N, C = ends). [ ]: non-standard residue; d: D form. The star is where a group is joined. Bta = N[C@@H](Cc1csc2ccccc12)C(=O)O; Tle = CC(C)(C)[C@H](N)C(=O)O; hCys = N[C@@H](CCS)C(=O)O; Hexanoyl = CCCCCC(=O)*; Aib = CC(C)(N)C(=O)O; Acm = CC(=O)NC*; Sar = CNCC(=O)O

Tests used:
in vitro = settings: human, plasma
[1] = mouse, plasma, 24 h
TFPI [2] = assay: % Inhibition @ 2.5µM
TFPI [3] = assay: % Inhibition @ 0.63µM
TFPI [4] = assay: FXa Inhibition assay | EC50 (µM)
TFPI [5] = assay: % Inhibition @ 2.5µM; remark: listed apart in the source
TFPI [6] = assay: % Inhibition @ 0.63µM; remark: listed apart in the source
TFPI [7] = assay: Progress Curves of Inhibition of FXa | % Inhibit (2.5μM)
Method: Head of the field: Progress Curves of Inhibition of FXa | % Inhibit (2.5μM)

TFPI [8] = assay: Extrinsic Tenase Inhibition assay | % Inhibition @ 2.5μM

CC(=O)N[C@@H](Cc1ccccc1)C(=O)N[C@@H](CCC(N)=O)C(=O)N[C@@H](CO)C(=O)N[C@@H](CCCCN)C(=O)N(C)CC(=O)N[C@@H](CC(N)=O)C(=O)N[C@H](C(=O)N[C@@H](Cc1ccccc1)C(=O)N[C@H](C(=O)N[C@@H](CC(=O)O)C(=O)NCC(=O)N[C@@H](Cc1ccc(O)cc1)C(=O)N[C@@H](Cc1ccccc1)C(=O)N[C@@H](CCC(=O)O)C(=O)N[C@@H](CCCNC(=N)N)C(=O)N[C@@H](CC(C)C)C(=O)N[C@@H](CCCNC(=N)N)C(=O)N[C@@H](C)C(=O)N[C@@H](CCCCN)C(=O)N[C@@H](CC(C)C)C(N)=O)C(C)C)C(C)C [JBT0717] (Ac-FQSK[Sar]NVFVDGYFERLRAKL-NH2)
Plasma Stability (half life in minutes) human: >2 h

CC(=O)N[C@@H](Cc1ccccc1)C(=O)N[C@@H](CCC(N)=O)C(=O)N[C@@H](CO)C(=O)N[C@@H](CCCCN)C(=O)N(C)CC(=O)N[C@@H](CC(N)=O)C(=O)N[C@H](C(=O)N[C@@H](Cc1ccccc1)C(=O)N[C@H](C(=O)N[C@@H](CC(=O)O)C(=O)NCC(=O)N[C@@H](Cc1ccc(O)cc1)C(=O)N[C@@H](Cc1ccccc1)C(=O)N[C@@H](CCC(=O)O)C(=O)N[C@@H](CCCNC(=N)N)C(=O)N[C@@H](CC(C)C)C(=O)NC(C)(C)C(=O)N[C@@H](C)C(=O)N[C@@H](CCCCN)C(=O)N[C@@H](CC(C)C)C(N)=O)C(C)C)C(C)C [JBT1584]
Plasma Stability (half life in minutes) human: >2 h

CC(=O)N[C@@H](Cc1ccccc1)C(=O)N[C@@H](CCC(N)=O)C(=O)N[C@@H](CO)C(=O)N[C@@H](CCCCN)C(=O)N1CCC[C@@H]1C(=O)N[C@@H](CC(N)=O)C(=O)N[C@H](C(=O)N[C@@H](Cc1c[nH]cn1)C(=O)N[C@H](C(=O)N[C@@H](CC(=O)O)C(=O)N[C@H](C)C(=O)N[C@@H](Cc1ccc(O)cc1)C(=O)N[C@@H](Cc1ccccc1)C(=O)N[C@@H](CCC(=O)O)C(=O)N[C@@H](CCCNC(=N)N)C(=O)N[C@@H](CC(C)C)C(=O)NC(C)(C)C(=O)N[C@@H](C)C(=O)N[C@@H](CCCCN)C(=O)N[C@@H](CC(C)C)C(N)=O)C(C)C)C(C)C [JBT2414] (Ac-FQSK[dP]NVHVD[dA]YFERL[Aib]AKL-NH2)
remaining at 24 h (in vitro): 100%

CC(=O)N[C@@H](Cc1ccccc1)C(=O)N[C@@H](CCC(N)=O)C(=O)N[C@@H](CO)C(=O)N[C@@H](CCCCN)C(=O)N1CCC[C@@H]1C(=O)N[C@@H](CC(N)=O)C(=O)N[C@H](C(=O)N[C@@H](Cc1c[nH]cn1)C(=O)N[C@H](C(=O)N1CCC[C@H]1C(=O)N[C@@H]1CSSCC[C@@H](C(=O)N[C@@H](CCCNC(=N)N)C(=O)N[C@@H](CC(C)C)C(=O)NC(C)(C)C(=O)N[C@@H](C)C(=O)N[C@@H](CCCCN)C(=O)N[C@@H](CC(C)C)C(N)=O)NC(=O)[C@H](Cc2csc3ccccc23)NC(=O)[C@H](Cc2ccc(O)cc2)NC1=O)C(C)C)C(C)C [JBT00002518, Ac-FQSKpNVHVP[cY-Bta--Hcy-]RL-Aib-AKL-NH2] (Ac-FQSK[dP]NVHVP[dC]Y[Bta][hCys]RL[Aib]AKL-NH2; disulfide 11-14)
24 h Human Plasma Stability | Mean Remaining [%] (FIGURE 78X): 77.70% | 24 h Mouse Plasma Stability | Mean Remaining [%] (FIGURE 78X): 28.30%

CCCCCC(=O)N[C@@H](Cc1ccccc1)C(=O)N[C@@H](CCC(N)=O)C(=O)N[C@@H](CO)C(=O)N[C@@H](CCCCN)C(=O)N1CCC[C@@H]1C(=O)N[C@@H](CSCNC(C)=O)C(=O)N[C@H](C(=O)N[C@@H](Cc1cnc[nH]1)C(=O)N[C@H](C(=O)N[C@@H](CC(=O)O)C(=O)N[C@H](C)C(=O)N[C@@H](Cc1ccc(O)cc1)C(=O)N[C@@H](Cc1ccccc1)C(=O)N[C@@H](CCC(=O)O)C(=O)N[C@@H](CCCNC(=N)N)C(=O)N[C@@H](CC(C)C)C(=O)NC(C)(C)C(=O)N[C@@H](C)C(=O)N[C@@H](CCCCN)C(=O)N[C@@H](CC(C)C)C(N)=O)C(C)(C)C)C(C)C [JBT2528, Hex-FQSKp-C(Acm)-VH-Tle-DaYFERL-Aib-AKL-NH2] (Hexanoyl-FQSK[dP]C(Acm)VH[Tle]D[dA]YFERL[Aib]AKL-NH2)
percentage of initial amount of peptide remaining [1]: 35% | remaining at 24 h (in vitro): 93%

(Ac-FQSKpNVHVDGYFERL-Aib-AKLC-NH2)2-M2TriO [JBT00002522]
24 h Human Plasma Stability | Mean Remaining [%] (FIGURE 78X): 46.90% | 24 h Mouse Plasma Stability | Mean Remaining [%] (FIGURE 78X): 18.05%

Ac-FQSK-Nmg-AVFVFGYFARLRAKL-NH2 (SEQ ID NO: 206) (Ac-FQSK[Sar]AVFVFGYFARLRAKL-NH2; SMILES CC(=O)N[C@@H](Cc1ccccc1)C(=O)N[C@@H](CCC(N)=O)C(=O)N[C@@H](CO)C(=O)N[C@@H](CCCCN)C(=O)N(C)CC(=O)N[C@@H](C)C(=O)N[C@H](C(=O)N[C@@H](Cc1ccccc1)C(=O)N[C@H](C(=O)N[C@@H](Cc1ccccc1)C(=O)NCC(=O)N[C@@H](Cc1ccc(O)cc1)C(=O)N[C@@H](Cc1ccccc1)C(=O)N[C@@H](C)C(=O)N[C@@H](CCCNC(=N)N)C(=O)N[C@@H](CC(C)C)C(=O)N[C@@H](CCCNC(=N)N)C(=O)N[C@@H](C)C(=O)N[C@@H](CCCCN)C(=O)N[C@@H](CC(C)C)C(N)=O)C(C)C)C(C)C) [JBT0681]
% Inhibition @ […] (TFPI [2]): 52% | % Inhibition @ […] (TFPI [3]): 52%

Ac-FQSKDNVFVTGYFERLRAKL-NH2 (SEQ ID NO: 33) [JBT0478]
EC50 (TFPI [4]): 760 nM | % Inhibition @ […] (TFPI [5]): 39% | % Inhibition @ […] (TFPI [6]): 21%

Ac-FQSKGNVFLFGYFERLRAKL-NH2 (SEQ ID NO: 694) [JBT0658]
% Inhibition @ […] (TFPI [2]): 6%

Ac-FQSKGNVFVDGYFDRLRAKL-NH2 (SEQ ID NO: 31) [JBT0476]
EC50 (TFPI [4]): 220 nM | % Inhibition @ […] (TFPI [5]): 49% | % Inhibition @ […] (TFPI [6]): 38%

Ac-FQSKGNVFVEGYFERLRAKL-NH2 (SEQ ID NO: 30) [JBT0475]
EC50 (TFPI [4]): 250 nM | % Inhibition @ […] (TFPI [5]): 50% | % Inhibition @ […] (TFPI [6]): 37%

Ac-FQSKGNVFVHGYFERLRAKL-NH2 (SEQ ID NO: 28) [JBT0473]
EC50 (TFPI [4]): 250 nM | % Inhibition @ […] (TFPI [5]): 45% | % Inhibition @ […] (TFPI [6]): 31%

Ac-FQSKGNVFVNGYFERLRAKL-NH2 (SEQ ID NO: 27) [JBT0472]
EC50 (TFPI [4]): 370 nM | % Inhibition @ […] (TFPI [5]): 49% | % Inhibition @ […] (TFPI [6]): 34%

Ac-KKQLHVSKRSKEMALARLYYKTKK-NH2 (SEQ ID NO: 2306) [JBT0235]
Progress Curves of Inhibition of FXa | % Inhibit ([…]) (TFPI [7]): 0%

Ac-KKVQLHVSKRSKEMALARLYYKTSKK- NH2 (SEQ ID NO: 2301) (Ac-KKVQLHVSKRSKEMALARLYYKTSKK-NH2) [JBT0230]
Progress Curves of Inhibition of FXa | % Inhibit ([…]) (TFPI [7]): 0%

Ac-KKYASFPLAVQLHVSKRSKEMAKK-NH2 [JBT0233]
Progress Curves of Inhibition of FXa | % Inhibit ([…]) (TFPI [7]): 6%

Ac-KRYKWF[CGMRDMKGTMSC]VWVKF-NH2 (SEQ ID NO: 1016) (Ac-KRYKWFCGMRDMKGTMSCVWVKF-NH2; disulfide 7-18; SMILES CSCC[C@@H]1NC(=O)CNC(=O)[C@@H](NC(=O)[C@H](Cc2ccccc2)NC(=O)[C@H](Cc2c[nH]c3ccccc23)NC(=O)[C@H](CCCCN)NC(=O)[C@H](Cc2ccc(O)cc2)NC(=O)[C@H](CCCNC(=N)N)NC(=O)[C@H](CCCCN)NC(C)=O)CSSC[C@@H](C(=O)N[C@H](C(=O)N[C@@H](Cc2c[nH]c3ccccc23)C(=O)N[C@H](C(=O)N[C@@H](CCCCN)C(=O)N[C@@H](Cc2ccccc2)C(N)=O)C(C)C)C(C)C)NC(=O)[C@H](CO)NC(=O)[C@H](CCSC)NC(=O)[C@H]([C@@H](C)O)NC(=O)CNC(=O)[C@H](CCCCN)NC(=O)[C@H](CCSC)NC(=O)[C@H](CC(=O)O)NC(=O)[C@H](CCCNC(=N)N)NC1=O) [JBT1474]
Extrinsic Tenase Inhibition assay | % Inhibition @ […] (TFPI [8]): 59%

Ac-SFYKWF[CGMRDMKGTMSC]VWVKF-NH2 (SEQ ID NO:1010) [JBT1437]
Extrinsic Tenase Inhibition assay | % Inhibition @ […] (TFPI [8]): 53%

Ac-SRYKWF[CGMKDMKGTMSC]VWVKF-NH2 (SEQ ID NO: 1017) (Ac-SRYKWFCGMKDMKGTMSCVWVKF-NH2; disulfide 7-18; SMILES CSCC[C@@H]1NC(=O)CNC(=O)[C@@H](NC(=O)[C@H](Cc2ccccc2)NC(=O)[C@H](Cc2c[nH]c3ccccc23)NC(=O)[C@H](CCCCN)NC(=O)[C@H](Cc2ccc(O)cc2)NC(=O)[C@H](CCCNC(=N)N)NC(=O)[C@H](CO)NC(C)=O)CSSC[C@@H](C(=O)N[C@H](C(=O)N[C@@H](Cc2c[nH]c3ccccc23)C(=O)N[C@H](C(=O)N[C@@H](CCCCN)C(=O)N[C@@H](Cc2ccccc2)C(N)=O)C(C)C)C(C)C)NC(=O)[C@H](CO)NC(=O)[C@H](CCSC)NC(=O)[C@H]([C@@H](C)O)NC(=O)CNC(=O)[C@H](CCCCN)NC(=O)[C@H](CCSC)NC(=O)[C@H](CC(=O)O)NC(=O)[C@H](CCCCN)NC1=O) [JBT1481]
Extrinsic Tenase Inhibition assay | % Inhibition @ […] (TFPI [8]): 55%

Ac-SRYKWF[CGMRDMKGTLSC]VWVKF-NH2 (SEQ ID NO:1064) [JBT1506]
Extrinsic Tenase Inhibition assay | % Inhibition @ […] (TFPI [8]): 45%
